Structures are written as SMILES. Activity calls are given as the source filed them.

One series has as its target Cytochrome P450 2C9 (Homo sapiens, UniProt P11712).
Series [1] concerns the target Lysosomal acid glucosylceramidase (Homo sapiens, UniProt P04062). The series can be described thus: Dose response cell-based high throughput screening assay to identify enhancers of beta-glucosidase activity. [Related pubchem assays: 784 ]. The series is classed as functional.
The next series deals with Cytochrome P450 2C19 (Homo sapiens, UniProt P33261). The series can be described thus: Cytochrome panel assay with activity outcomes. Panel member name: p450-cyp2c19 Compounds with AC50 equal or less than 10 uM are considered active. The class given is functional.
Series [2] concerns the target Acyl-homoserine lactone acylase PvdQ (Pseudomonas aeruginosa (strain LESB58), UniProt Q9I194). The series can be described thus: P. aeruginosa PvdQ acylase inhibitors, dose response, biochemical, fluorescence, plate reader and imaging, cherry-picks (AID 493231).
The next series has as its target T1, Aminopeptidase N (Plasmodium falciparum FcB1/Columbia, UniProt O96935).
T1 sequence (O96935 whole entry): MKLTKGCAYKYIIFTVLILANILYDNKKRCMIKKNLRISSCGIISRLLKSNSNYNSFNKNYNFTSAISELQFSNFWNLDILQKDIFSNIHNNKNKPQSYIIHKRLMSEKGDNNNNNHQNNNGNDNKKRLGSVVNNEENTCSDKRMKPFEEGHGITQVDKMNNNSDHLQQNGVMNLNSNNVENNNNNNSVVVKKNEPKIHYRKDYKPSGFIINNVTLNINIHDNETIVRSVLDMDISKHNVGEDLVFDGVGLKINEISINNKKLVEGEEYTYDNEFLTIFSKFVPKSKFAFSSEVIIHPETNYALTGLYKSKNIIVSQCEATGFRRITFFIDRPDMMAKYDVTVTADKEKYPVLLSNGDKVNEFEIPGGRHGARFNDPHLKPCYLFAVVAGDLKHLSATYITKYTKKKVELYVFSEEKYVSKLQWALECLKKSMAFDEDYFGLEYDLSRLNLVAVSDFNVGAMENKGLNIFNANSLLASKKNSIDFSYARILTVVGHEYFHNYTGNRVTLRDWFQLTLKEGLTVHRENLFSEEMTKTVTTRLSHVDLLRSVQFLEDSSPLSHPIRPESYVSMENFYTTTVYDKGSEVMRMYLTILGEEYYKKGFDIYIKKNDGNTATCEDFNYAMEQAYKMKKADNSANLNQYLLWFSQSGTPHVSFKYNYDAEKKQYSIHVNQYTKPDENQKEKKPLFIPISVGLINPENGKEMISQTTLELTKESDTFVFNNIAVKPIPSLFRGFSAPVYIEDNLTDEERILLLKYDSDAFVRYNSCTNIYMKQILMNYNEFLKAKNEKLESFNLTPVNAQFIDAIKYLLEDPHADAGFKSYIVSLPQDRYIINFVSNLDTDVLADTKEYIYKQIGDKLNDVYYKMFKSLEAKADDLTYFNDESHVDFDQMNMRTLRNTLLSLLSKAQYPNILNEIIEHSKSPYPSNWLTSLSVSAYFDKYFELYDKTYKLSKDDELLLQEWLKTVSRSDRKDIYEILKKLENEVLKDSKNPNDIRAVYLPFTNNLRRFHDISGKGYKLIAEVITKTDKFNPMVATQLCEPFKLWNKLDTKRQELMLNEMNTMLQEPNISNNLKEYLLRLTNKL
The series can be described thus: P. falciparum M1AAP inhibitors, biochemical, fluorogenic H-Leu-NHMec substrate, 1536-well (AID 1445). The arrangement: species or system Plasmodium falciparum 3D7, 3D7.

The target in another series is T2, Insulin-degrading enzyme (Homo sapiens, UniProt P14735).
T2 sequence (P14735 whole entry): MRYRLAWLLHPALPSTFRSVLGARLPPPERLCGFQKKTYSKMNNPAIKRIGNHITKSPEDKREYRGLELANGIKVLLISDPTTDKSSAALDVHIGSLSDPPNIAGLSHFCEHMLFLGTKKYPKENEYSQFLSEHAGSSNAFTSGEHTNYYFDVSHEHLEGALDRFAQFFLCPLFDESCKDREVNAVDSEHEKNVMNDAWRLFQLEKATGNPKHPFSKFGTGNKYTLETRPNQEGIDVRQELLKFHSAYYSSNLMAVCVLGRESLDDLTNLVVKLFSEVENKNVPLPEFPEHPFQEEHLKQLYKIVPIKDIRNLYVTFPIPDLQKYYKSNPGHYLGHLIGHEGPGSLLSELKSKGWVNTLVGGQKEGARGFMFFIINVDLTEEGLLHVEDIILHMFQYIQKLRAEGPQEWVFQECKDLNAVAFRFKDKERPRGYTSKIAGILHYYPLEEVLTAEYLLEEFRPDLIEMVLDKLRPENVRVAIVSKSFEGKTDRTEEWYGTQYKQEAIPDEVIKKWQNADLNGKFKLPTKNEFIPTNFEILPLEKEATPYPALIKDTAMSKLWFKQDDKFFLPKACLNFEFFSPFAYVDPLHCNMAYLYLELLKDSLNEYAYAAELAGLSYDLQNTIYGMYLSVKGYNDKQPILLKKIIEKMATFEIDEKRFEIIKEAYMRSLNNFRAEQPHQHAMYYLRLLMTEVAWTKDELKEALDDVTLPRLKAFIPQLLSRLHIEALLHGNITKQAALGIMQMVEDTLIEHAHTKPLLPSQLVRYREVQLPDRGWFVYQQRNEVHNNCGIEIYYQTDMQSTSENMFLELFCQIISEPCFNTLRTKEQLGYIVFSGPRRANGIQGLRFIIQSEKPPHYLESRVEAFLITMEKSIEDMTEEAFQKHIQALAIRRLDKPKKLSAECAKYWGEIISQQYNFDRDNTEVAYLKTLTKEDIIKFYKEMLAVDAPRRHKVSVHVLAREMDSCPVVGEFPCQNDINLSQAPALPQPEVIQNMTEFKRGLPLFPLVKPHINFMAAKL
The series can be described thus: Dose Response: Fluorescence polarization-based cell-based high throughput dose response assay for inhibitors of insulin-degrading enzyme (IDE). [Related pubchem assays: 434962 (Primary screen (IDE inhibitors in singlicate)), 449730 (Counterscreen (Cytotoxicity in triplicate)), 435028 (Confirmation (IDE inhibitors in triplicate)), 434984 (Summary …. The class given is functional. A general note: In fluorescence polarisation assays a small probe gives low polarisation when free and higher when bound to something large.

Series [3] can be described thus: Counterscreen for IDE inhibitors: Luminescence-based cell-based high throughput dose response assay to identify compounds that are cytotoxic to HEK cells. [Related pubchem assays: 434962 (Primary screen (IDE inhibitors in singlicate)), 449730 (Counterscreen (Cytotoxicity in triplicate)), 435028 (Confirmation (IDE inhibitors in triplicate)) …. The series is classed as functional. As to conditions: HEK293. For orientation: Counterscreens check selectivity or assay interference.

Acyl-homoserine lactone acylase PvdQ, sequence (Q9I194 24-193 limits assumed): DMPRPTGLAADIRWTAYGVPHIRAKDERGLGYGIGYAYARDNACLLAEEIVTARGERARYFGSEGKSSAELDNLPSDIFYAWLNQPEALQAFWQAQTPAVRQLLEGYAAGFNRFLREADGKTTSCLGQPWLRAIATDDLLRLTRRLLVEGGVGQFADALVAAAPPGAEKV
Acyl-homoserine lactone acylase PvdQ, sequence (Q9I194 217-762 limits assumed): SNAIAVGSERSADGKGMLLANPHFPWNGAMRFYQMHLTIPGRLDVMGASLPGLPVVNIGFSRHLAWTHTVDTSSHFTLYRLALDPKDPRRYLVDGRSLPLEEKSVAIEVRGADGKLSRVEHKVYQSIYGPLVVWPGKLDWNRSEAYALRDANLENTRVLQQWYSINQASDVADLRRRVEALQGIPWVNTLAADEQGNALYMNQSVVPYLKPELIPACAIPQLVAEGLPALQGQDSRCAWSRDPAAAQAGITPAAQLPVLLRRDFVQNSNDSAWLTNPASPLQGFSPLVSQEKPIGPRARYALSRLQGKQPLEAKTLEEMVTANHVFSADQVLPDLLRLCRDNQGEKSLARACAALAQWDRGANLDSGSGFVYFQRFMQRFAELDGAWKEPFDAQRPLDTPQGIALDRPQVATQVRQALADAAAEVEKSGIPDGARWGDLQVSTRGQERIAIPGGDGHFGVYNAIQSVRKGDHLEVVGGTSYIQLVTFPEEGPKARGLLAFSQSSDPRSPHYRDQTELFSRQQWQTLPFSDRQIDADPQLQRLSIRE
Lysosomal acid glucosylceramidase, sequence (P04062 whole entry): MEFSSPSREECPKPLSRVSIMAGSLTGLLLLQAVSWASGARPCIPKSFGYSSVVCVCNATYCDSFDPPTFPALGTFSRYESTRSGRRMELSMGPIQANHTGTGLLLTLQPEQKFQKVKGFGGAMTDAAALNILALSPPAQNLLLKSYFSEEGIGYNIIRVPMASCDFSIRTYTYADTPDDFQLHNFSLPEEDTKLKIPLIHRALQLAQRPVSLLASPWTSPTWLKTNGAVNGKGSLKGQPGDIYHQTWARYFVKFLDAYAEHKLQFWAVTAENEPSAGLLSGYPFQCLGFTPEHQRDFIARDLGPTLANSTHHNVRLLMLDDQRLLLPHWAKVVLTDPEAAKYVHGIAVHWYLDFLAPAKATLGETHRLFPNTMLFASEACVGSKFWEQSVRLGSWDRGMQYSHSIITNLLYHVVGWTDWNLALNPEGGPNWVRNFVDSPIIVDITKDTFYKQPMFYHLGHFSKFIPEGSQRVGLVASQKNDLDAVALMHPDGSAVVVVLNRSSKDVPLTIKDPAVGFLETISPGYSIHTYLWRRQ
Cytochrome P450 2C19, sequence (P33261 whole entry): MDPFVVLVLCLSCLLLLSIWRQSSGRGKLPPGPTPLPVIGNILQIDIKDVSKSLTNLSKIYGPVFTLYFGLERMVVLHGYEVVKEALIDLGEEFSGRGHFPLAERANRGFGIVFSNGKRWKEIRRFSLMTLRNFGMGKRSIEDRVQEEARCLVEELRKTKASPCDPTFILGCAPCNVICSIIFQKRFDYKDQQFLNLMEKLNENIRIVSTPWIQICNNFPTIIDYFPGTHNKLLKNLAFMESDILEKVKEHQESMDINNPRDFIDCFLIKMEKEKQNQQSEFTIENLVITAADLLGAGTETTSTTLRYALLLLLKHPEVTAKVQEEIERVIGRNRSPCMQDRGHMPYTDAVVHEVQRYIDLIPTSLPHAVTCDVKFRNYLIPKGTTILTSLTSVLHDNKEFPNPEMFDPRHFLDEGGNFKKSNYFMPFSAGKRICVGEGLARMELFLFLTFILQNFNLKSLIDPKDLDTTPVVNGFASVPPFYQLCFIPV
Cytochrome P450 2C9, sequence (P11712 whole entry): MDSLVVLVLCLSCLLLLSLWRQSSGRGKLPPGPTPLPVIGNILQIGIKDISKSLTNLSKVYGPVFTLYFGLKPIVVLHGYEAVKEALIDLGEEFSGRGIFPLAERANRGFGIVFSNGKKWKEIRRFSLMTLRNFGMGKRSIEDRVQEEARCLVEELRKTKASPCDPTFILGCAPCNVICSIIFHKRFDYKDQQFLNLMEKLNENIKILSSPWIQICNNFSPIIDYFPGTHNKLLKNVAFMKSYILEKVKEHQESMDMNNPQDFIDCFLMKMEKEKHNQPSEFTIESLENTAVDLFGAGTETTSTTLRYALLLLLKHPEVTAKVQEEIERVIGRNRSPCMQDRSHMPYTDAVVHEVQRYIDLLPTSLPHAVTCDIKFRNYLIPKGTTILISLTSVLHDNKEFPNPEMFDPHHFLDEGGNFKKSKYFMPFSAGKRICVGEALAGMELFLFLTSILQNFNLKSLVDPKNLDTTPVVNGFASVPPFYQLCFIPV

As to `COc1cccc2cc(NC(=O)C3CCCCC3)c(=O)oc12`, the concentration at half-maximal activity (AC50) entry on Cytochrome P450 2C9 was “inconclusive”; on Cytochrome P450 2C19, 39.8 µM (inconclusive). Also, in series [1], the EC50 is reported as > 50 µM (not active). With `CCOC(=O)c1ccc(NC(=O)c2ccco2)cc1`, the AC50 in series [2] is 57.2 µM (active). Turning to `CC(=O)Nc1cccc(NC(=O)C2CCCN2C(=O)Nc2ccc(C)cc2)c1` (centres undefined), the EC50 in series [1] is on record as > 50 µM (not active). In addition, on Aminopeptidase N, the IC50 was 61.3 µM (active). Consider `CC(=O)Nc1cc(/N=C/c2ccc(O)cc2O)c(Cl)cc1Cl`, for which the half-maximal inhibitory concentration (IC50) is > 6.22 µM (active) at Insulin-degrading enzyme and 16 µM (not active) in series [3].

`Cc1cc(C)nc(N(C#N)Cc2ccc([N+](=O)[O-])cc2)n1`: the AC50 in series [2] is > 100 µM (inactive).

A word on the AC50: it is the concentration giving half of the maximal activity seen. In general, EC50 refers to the concentration needed to bring the measured effect to its halfway point. Broadly, the IC50 is the point on the concentration scale where inhibition reaches its midpoint.

These data come from ChEMBL document CHEMBL1201862, “PubChem BioAssay data set” (2004).
